From patent US8410302B2, “Methoxyimino compounds and fungicide composition comprising same” (Kyung Nong Corporation, priority 2007, dated 2013)
Read-outs that look alike come from different tables or passages of the source.

How the values were obtained:
Erysiphae graminis = test: Fungicidal activity against barley powdery mildew (BPM) disease, control value; type: in vivo; conditions: for pest or weed control at 2 ppm / pest or weed control at 10 ppm / pest or weed control at 50 ppm / pest or weed control at 100 ppm: 168 h, read-out: BPM control value (C.V.)
[1] = test system: Pyricularia oryzae Carvara KA301; test: whole plant or invertebrate; type: in vivo; conditions: for pest or weed control at 2 ppm / pest or weed control at 10 ppm / pest or weed control at 50 ppm / pest or weed control at 100 ppm: Pyricularia oryzae, read-out: RCB control value (C.V.); for RCB control value (C.V.): rice blast
Puccinia recondita = test: Fungicidal activity against wheat leaf rust (WLR) disease, control value; type: in vivo; conditions: for pest or weed control at 2 ppm / pest or weed control at 10 ppm / pest or weed control at 50 ppm / pest or weed control at 100 ppm: read-out: WLR control value (C.V.)
Botrytis cinerae = test: Fungicidal activity against cucumber gray mold rot (CGM) disease, control value; type: in vivo
Procedure: Botrytis cinerae, which was isolated from cucumber infected thereby, was inoculated on a potato agar medium (PEC) and cultured under a 12L/12D cycle at 25° C. for 15 days to form spore. The spores were scraped, filtered through a gauze and then suspended in Potato Dextrose broth at a concentration of 1×10^6 spore/ml. The spore suspension was sprayed on a cucumber plant having one leaf. The cucumber plant was held in a humidified room at 20° C. for 3 days. L.A. on a leaf was measured to calculate a C.V.

Rhizoctonia solani AG-1 = test: Fungicidal activity against rice sheath blight (RSB) disease, control value; conditions: for pest or weed control at 2 ppm / pest or weed control at 10 ppm / pest or weed control at 50 ppm / pest or weed control at 100 ppm: Rhizoctonia solani, AG1, in Oryza sativa, read-out: RSB control value (C.V.)
Phytophthora infestans = test: whole plant or invertebrate; type: in vivo; conditions: for pest or weed control at 2 ppm / pest or weed control at 10 ppm / pest or weed control at 50 ppm / pest or weed control at 100 ppm: Phytophthora infestans, in Solanum lycopersicum, read-out: TLB control value (C.V.); for TLB control value (C.V.): tomato late blight
[2] = Hordeum vulgare, 10 ppm, barley powdery mildew
[3] = Hordeum vulgare, 50 ppm, barley powdery mildew
[4] = Hordeum vulgare, 100 ppm, barley powdery mildew
[5] = Botrytis, 100 ppm, cucumber gray mold rot, read-out: CGM control value (C.V.)

How did the pest or weed control at 2 ppm (Erysiphae graminis; Hordeum vulgare, 2 ppm, barley powdery mildew) turn out when `CO/N=C(/C(=O)OC)c1ccccc1COc1ccc(C=C(Br)Br)cc1` [Example 7, methyl-(E)-2-(2-((4-(2,2-dibromovinyl)phenoxy)methyl)phenyl)-2-methoxyiminoacetate] was run?
The pest or weed control at 2 ppm was 100%.

And the pest or weed control at 10 ppm (Erysiphae graminis; [2])?
The pest or weed control at 10 ppm was 100%.

What about the pest or weed control at 50 ppm (Erysiphae graminis; [3]) of the same compound?
The pest or weed control at 50 ppm was 100%.

What about the pest or weed control at 100 ppm (Erysiphae graminis; [4]) of the same compound?
Its pest or weed control at 100 ppm is 100%.

And the pest or weed control at 2 ppm [1]?
Its pest or weed control at 2 ppm is 100%.

And the pest or weed control at 10 ppm [1]?
The pest or weed control at 10 ppm was 100%.

What about the pest or weed control at 50 ppm [1] of the same compound?
Its pest or weed control at 50 ppm is 100%.

What about the pest or weed control at 100 ppm [1] of the same compound?
The pest or weed control at 100 ppm was 100%.

What about the pest or weed control at 2 ppm (Puccinia recondita; 2 ppm, wheat leaf rust) of the same compound?
Its pest or weed control at 2 ppm is 100%.

And the pest or weed control at 10 ppm (Puccinia recondita; 10 ppm, wheat leaf rust)?
Its pest or weed control at 10 ppm is 100%.

And the pest or weed control at 50 ppm (Puccinia recondita; 50 ppm, wheat leaf rust)?
The pest or weed control at 50 ppm was 100%.

And the pest or weed control at 100 ppm (Puccinia recondita; 100 ppm, wheat leaf rust)?
Its pest or weed control at 100 ppm is 100%.

What about the pest or weed control at 100 ppm (Botrytis cinerae; [5]) of the same compound?
Its pest or weed control at 100 ppm is 35%.

And the pest or weed control at 2 ppm (Rhizoctonia solani AG-1)?
The pest or weed control at 2 ppm was 98%.

What about the pest or weed control at 10 ppm (Rhizoctonia solani AG-1) of the same compound?
The pest or weed control at 10 ppm was 100%.

What about the pest or weed control at 50 ppm (Rhizoctonia solani AG-1) of the same compound?
Its pest or weed control at 50 ppm is 100%.

What about the pest or weed control at 100 ppm (Rhizoctonia solani AG-1) of the same compound?
The pest or weed control at 100 ppm was 100%.

What about the pest or weed control at 2 ppm (Phytophthora infestans) of the same compound?
Its pest or weed control at 2 ppm is 100%.

What about the pest or weed control at 10 ppm (Phytophthora infestans) of the same compound?
The pest or weed control at 10 ppm was 100%.

And the pest or weed control at 50 ppm (Phytophthora infestans)?
Its pest or weed control at 50 ppm is 100%.

And the pest or weed control at 100 ppm (Phytophthora infestans)?
The pest or weed control at 100 ppm was 100%.

What does the source list for `CNC(=O)/C(=N/OC)c1ccccc1COc1ccc(F)cc1C=C(Cl)Cl` [Example 56, (E)-2-(2-((2-(2,2-dichlorovinyl)-4-fluorophenoxy)methyl)phenyl)-2-methoxyimino-N-methylacetamide]?
pest or weed control at 2 ppm (Erysiphae graminis; 2 ppm): 100%; pest or weed control at 10 ppm (Erysiphae graminis; 10 ppm): 100%; pest or weed control at 50 ppm (Erysiphae graminis; 50 ppm): 100%; pest or weed control at 100 ppm (Erysiphae graminis; 100 ppm): 100%; pest or weed control at 2 ppm [1]: 97%; pest or weed control at 10 ppm [1]: 100%; pest or weed control at 50 ppm [1]: 100%; pest or weed control at 100 ppm [1]: 100%; pest or weed control at 2 ppm (Puccinia recondita; Puccinia recondita, 2 ppm): 100%; pest or weed control at 10 ppm (Puccinia recondita; Puccinia recondita, 10 ppm): 100%; pest or weed control at 50 ppm (Puccinia recondita; Puccinia recondita, 50 ppm): 100%; pest or weed control at 100 ppm (Puccinia recondita; Puccinia recondita, 100 ppm): 100%; pest or weed control at 50 ppm (Botrytis cinerae; Botrytis, 50 ppm, read-out: CGM control value (C.V.)): 20%; pest or weed control at 100 ppm (Botrytis cinerae; Botrytis, 100 ppm, read-out: CGM control value (C.V.)): 65%; pest or weed control at 2 ppm (Rhizoctonia solani AG-1): 95%; pest or weed control at 10 ppm (Rhizoctonia solani AG-1): 100%; pest or weed control at 50 ppm (Rhizoctonia solani AG-1): 100%; pest or weed control at 100 ppm (Rhizoctonia solani AG-1): 100%; pest or weed control at 2 ppm (Phytophthora infestans): 95%; pest or weed control at 10 ppm (Phytophthora infestans): 100%; pest or weed control at 50 ppm (Phytophthora infestans): 100%; pest or weed control at 100 ppm (Phytophthora infestans): 100%

Which “BPM control value (C.V.)” value (Erysiphae graminis; 2 ppm, barley powdery mildew) does the source give for `CO/N=C(/C(=O)OC)c1ccccc1CON=C(C)c1ccc(C=C(Cl)Cl)cc1` [Example 21, methyl-(E)-2-[[[[[2-[4-(2,2-dichlorovinyl)phenyl](1-methyl)methylidene]amino]oxy]methyl]phenyl]-2-methoxyiminoacetate] here?
Its value is 20%.

What about the “BPM control value (C.V.)” value (Erysiphae graminis; 10 ppm, barley powdery mildew) of the same compound?
The value was 50%.

And the “BPM control value (C.V.)” value (Erysiphae graminis; 50 ppm, barley powdery mildew)?
The value was 95%.

What about the “BPM control value (C.V.)” value (Erysiphae graminis; 100 ppm, barley powdery mildew) of the same compound?
Its value is 95%.

And the “RCB control value (C.V.)” value ([1]; 2 ppm)?
The value was 30%.

What about the “RCB control value (C.V.)” value ([1]; 10 ppm) of the same compound?
Its value is 90%.

And the “RCB control value (C.V.)” value ([1]; 50 ppm)?
The value was 100%.

And the “RCB control value (C.V.)” value ([1]; 100 ppm)?
The value was 100%.

And the “WLR control value (C.V.)” value (Puccinia recondita; 2 ppm, wheat leaf rust)?
Its value is 40%.

And the “WLR control value (C.V.)” value (Puccinia recondita; 10 ppm, wheat leaf rust)?
Its value is 90%.

What about the “WLR control value (C.V.)” value (Puccinia recondita; 50 ppm, wheat leaf rust) of the same compound?
Its value is 100%.

And the “WLR control value (C.V.)” value (Puccinia recondita; 100 ppm, wheat leaf rust)?
Its value is 100%.

What about the “CGM control value (C.V.)” value (Botrytis cinerae; 100 ppm, cucumber gray mold rot) of the same compound?
Its value is 50%.

And the “RSB control value (C.V.)” value (Rhizoctonia solani AG-1; 100 ppm, rice sheath blight)?
Its value is 60%.

What about the “TLB control value (C.V.)” value (Phytophthora infestans; 2 ppm) of the same compound?
Its value is 0%.

And the “TLB control value (C.V.)” value (Phytophthora infestans; 10 ppm)?
Its value is 35%.

What about the “TLB control value (C.V.)” value (Phytophthora infestans; 50 ppm) of the same compound?
The value was 95%.

And the “TLB control value (C.V.)” value (Phytophthora infestans; 100 ppm)?
The value was 98%.

For `CO/N=C(/C(=O)OC)c1ccccc1COc1ccc(C=C(Cl)Cl)cc1Br` [Example 53, methyl-(E)-2-(2-((2-bromo-4-(2,2-dichlorovinyl)phenoxy)methyl)phenyl)-2-methoxyiminoacetate], which pest or weed control at 2 ppm (Erysiphae graminis; 2 ppm) is on record?
The pest or weed control at 2 ppm was 100%.

What about the pest or weed control at 10 ppm (Erysiphae graminis; [2]) of the same compound?
Its pest or weed control at 10 ppm is 100%.

What about the pest or weed control at 50 ppm (Erysiphae graminis; [3]) of the same compound?
The pest or weed control at 50 ppm was 100%.

What about the pest or weed control at 100 ppm (Erysiphae graminis; [4]) of the same compound?
Its pest or weed control at 100 ppm is 100%.

What about the pest or weed control at 2 ppm [1] of the same compound?
The pest or weed control at 2 ppm was 70%.

What about the pest or weed control at 10 ppm [1] of the same compound?
Its pest or weed control at 10 ppm is 97%.

And the pest or weed control at 50 ppm [1]?
Its pest or weed control at 50 ppm is 100%.

What about the pest or weed control at 100 ppm [1] of the same compound?
The pest or weed control at 100 ppm was 100%.

What about the pest or weed control at 10 ppm (Puccinia recondita; 10 ppm, wheat leaf rust) of the same compound?
The pest or weed control at 10 ppm was 100%.

What about the pest or weed control at 50 ppm (Puccinia recondita; 50 ppm, wheat leaf rust) of the same compound?
The pest or weed control at 50 ppm was 100%.

What about the pest or weed control at 100 ppm (Puccinia recondita; 100 ppm, wheat leaf rust) of the same compound?
The pest or weed control at 100 ppm was 100%.

What about the pest or weed control at 2 ppm (Puccinia recondita; Puccinia recondita, 2 ppm) of the same compound?
Its pest or weed control at 2 ppm is 100%.

What about the pest or weed control at 100 ppm (Botrytis cinerae; [5]) of the same compound?
The pest or weed control at 100 ppm was 50%.

What about the pest or weed control at 2 ppm (Rhizoctonia solani AG-1) of the same compound?
The pest or weed control at 2 ppm was 85%.

What about the pest or weed control at 10 ppm (Rhizoctonia solani AG-1) of the same compound?
Its pest or weed control at 10 ppm is 98%.

What about the pest or weed control at 50 ppm (Rhizoctonia solani AG-1) of the same compound?
The pest or weed control at 50 ppm was 100%.

What about the pest or weed control at 100 ppm (Rhizoctonia solani AG-1) of the same compound?
Its pest or weed control at 100 ppm is 100%.

What about the pest or weed control at 2 ppm (Phytophthora infestans) of the same compound?
The pest or weed control at 2 ppm was 90%.

And the pest or weed control at 10 ppm (Phytophthora infestans)?
Its pest or weed control at 10 ppm is 99%.

And the pest or weed control at 50 ppm (Phytophthora infestans)?
The pest or weed control at 50 ppm was 100%.

What about the pest or weed control at 100 ppm (Phytophthora infestans) of the same compound?
The pest or weed control at 100 ppm was 100%.
